Assay results taken from patent publication US12091425B2 (AMGEN INC., priority 2016, dated 2024).

Assays:
[1] = biological target: T1, Mcl-1/Bim interaction, recombinant human Mcl-1 (171-327) (Homo sapiens, UniProt Q07820); test: Cell free Mcl-1: Bim Affinity Assay (Mcl-1 HTRF); type: binding; conditions: TR-FRET, 0.1 nM Mcl-1 (171-327), 0.05 nM biotin-Bim (51-76)
T1 construct: made in house
Outline: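 Displacement of biotinylated Bim 51-76 peptide is followed by TR-FRET. Incubation runs overnight. Duplicate points are fitted with a four-parameter sigmoid to yield IC50.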

[2] = system: OPM-2 human multiple myeloma cell line; test: Cell Viability Assay (OPM-2 10 FBS); type: cell-based; conditions: OPM-2 cells, 16 h, CellTiter-Glo
Experimental: Cell Viability Assay (OPM-2 10 FBS)
Cells were seeded into 384-well plates at 3000 cells/well density in complete growth medium containing 10% FBS, and incubated for 16 h with serially diluted test compounds in a 37° C. incubator with 5% CO2. Cell viability was tested using CellTiter-Glo® assay (Promega, Madison, WI) according to the manufacturer recommendations. Luminescence was determined using an EnVision® Multilabel plate reader 25 min after the addition of detection reagent. IC50 values were then calculated with Xlfit using a logistical 4-parameter fit model in GraphPad Prism (GraphPad Software, San Diego, CA) or in Genedata Screener® (Genedata, Basel, Switzerland).

T1 sequence (Q07820 171-327): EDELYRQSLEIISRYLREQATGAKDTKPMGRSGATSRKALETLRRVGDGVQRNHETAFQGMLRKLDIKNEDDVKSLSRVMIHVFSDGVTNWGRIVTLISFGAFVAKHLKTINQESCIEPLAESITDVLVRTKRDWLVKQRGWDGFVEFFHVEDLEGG

Row | IC50 ([2]; Homo sapiens, OPM-2, 16 h) [nM] | Structure (SMILES) | IC50 [1] [nM] | IC50 [2] [nM]
1 |  | O=C1NS(=O)(=O)[C@@H]2CCC[C@@H](/C=C/[C@H](O)[C@@H]3CC[C@H]3CN3C[C@@]4(CCCc5cc(Cl)ccc54)COc4ccc1cc43)C2 (single isomer, unassigned) [Example 105] | 0.589 | 330
2 |  | O=C1NS(=O)(=O)[C@@H]2CCC[C@@H](CC[C@H](O)[C@@H]3CC[C@H]3CN3C[C@@]4(CCCc5cc(Cl)ccc54)COc4ccc1cc43)C2 (single isomer, unassigned) [Example 107] | 0.597 | 17300
3 |  | CO[C@H]1/C=C/[C@@H]2CCC[C@H](C2)S(=O)(=O)NC(=O)c2ccc3c(c2)N(C[C@@H]2CC[C@H]21)C[C@@]1(CCCc2cc(Cl)ccc21)CO3 (single isomer, unassigned) [Example 108] | 1.13 | 2250
4 |  | O=C1NS(=O)(=O)[C@@H]2CCC[C@H](/C=C/[C@H](O)[C@@H]3CC[C@H]3CN3C[C@@]4(CCCc5cc(Cl)ccc54)COc4ccc1cc43)C2 (single isomer, unassigned) [Example 109] | 1.34 | 12200
5 |  | O=C1NS(=O)(=O)[C@H]2CCC[C@@H](/C=C/[C@H](O)[C@@H]3CC[C@H]3CN3C[C@@]4(CCCc5cc(Cl)ccc54)COc4ccc1cc43)C2 (single isomer, unassigned) [Example 110] | 1.34 | 5580
6 | 17800 | C[C@H]1[C@H]2/C=C/[C@H](O)[C@@H]3CC[C@H]3CN3C[C@@]4(CCCc5cc(Cl)ccc54)COc4ccc(cc43)C(=O)NS(=O)(=O)[C@H]1CCC2 (single isomer, unassigned) [Example 111] | 30.8 | 
7 |  | CO[C@H]1/C=C/C(CO)C(C)CS(=O)(=O)NC(=O)c2ccc3c(c2)N(C[C@@H]2CC[C@H]21)C[C@@]1(CCCc2cc(Cl)ccc21)CO3 (single isomer, unassigned) [Example 126] | 0.448 | 496
8 |  | CO[C@H]1/C=C/[C@@H](CO)C[C@H](C)S(=O)(=O)NC(=O)c2ccc3c(c2)N(C[C@@H]2CC[C@H]21)C[C@@]1(CCCc2cc(Cl)ccc21)CO3 (single isomer, unassigned) [Example 127] | 0.341 | 1850
9 | 2520 | COC1C=CC(CO)CC(C)S(=O)(=O)NC(=O)c2ccc3c(c2)N(CC2CCC21)CC1(CCCc2cc(Cl)ccc21)CO3 (single isomer, unassigned) [Example 128] | 0.603 | 
10 |  | C[C@@]12C/C=C/[C@H](O)[C@@H]3CC[C@H]3CN3C[C@@]4(CCCc5cc(Cl)ccc54)COc4ccc(cc43)C(=O)NS(=O)(=O)[C@H]1CCC2 (single isomer, unassigned) [Example 130] | 0.386 | 228
11 |  | C[C@@]12C/C=C/[C@H](O)[C@@H]3CC[C@H]3CN3C[C@@]4(CCCc5cc(Cl)ccc54)COc4ccc(cc43)C(=O)NS(=O)(=O)[C@H]1CCC2 (single isomer, unassigned) [Example 131] | 1.83 | 1820
12 | 2750 | CC12CC=CC(O)C3CCC3CN3CC4(CCCc5cc(Cl)ccc54)COc4ccc(cc43)C(=O)NS(=O)(=O)C1CCC2 (single isomer, unassigned) [Example 133] | 2 | 
13 | 130 | C[C@H]1C/C=C\[C@H](O)[C@@H]2CC[C@H]2CN2C[C@@]3(CCCc4cc(Cl)ccc43)COc3ccc(cc32)C(=O)NS(=O)(=O)[C@H]1C[C@H]1CCCO1 (single isomer, unassigned) [Example 136] | 0.259 | 
14 |  | O=C1NS(=O)(=O)[C@H](C2CC2)CC/C=C/[C@H](O)[C@@H]2CC[C@H]2CN2C[C@@]3(CCCc4cc(Cl)ccc43)COc3ccc1cc32 (single isomer, unassigned) [Example 148] | 0.285 | 458
15 |  | O=C1NS(=O)(=O)[C@H](C2CC2)CC/C=C/[C@H](O)[C@@H]2CC[C@H]2CN2C[C@@]3(CCCc4cc(Cl)ccc43)COc3ccc1cc32 (single isomer, unassigned) [Example 149] | 0.77 | 1330
16 |  | C[C@@H]1CC(=O)NC[C@@H]2CC[C@H]2CN2C[C@@]3(CCCc4cc(Cl)ccc43)COc3ccc(cc32)C(=O)NS(=O)(=O)[C@@H]1C (single isomer, unassigned) [Example 151] | 3.56 | 9170
17 | 29200 | CC1CC(=O)N(C)CC2CCC2CN2CC3(CCCc4cc(Cl)ccc43)COc3ccc(cc32)C(=O)NS(=O)(=O)C1C (single isomer, unassigned) [Example 152] | 19.6 | 
18 |  | CC(C)(C)S(=O)(=O)CC[C@H]1CC/C=C/[C@H](O)[C@@H]2CC[C@H]2CN2C[C@@]3(CCCc4cc(Cl)ccc43)COc3ccc(cc32)C(=O)NS1(=O)=O (single isomer, unassigned) [Example 155] | 0.846 | 11600

Row | IC50 ([2]; Homo sapiens, OPM-2, 16 h) [nM] | Structure (SMILES) | IC50 [1] [nM] | IC50 [2] [nM]
19 |  | CO[C@H]1/C=C/CC[C@@H](CCS(=O)(=O)C(C)(C)C)S(=O)(=O)NC(=O)c2ccc3c(c2)N(C[C@@H]2CC[C@H]21)C[C@@]1(CCCc2cc(Cl)ccc21)CO3 (single isomer, unassigned) [Example 156] | 0.831 | 266
20 |  | COC(=O)[C@@H]1CC/C=C/[C@H](O)[C@@H]2CC[C@H]2CN2C[C@@]3(CCCc4cc(Cl)ccc43)COc3ccc(cc32)C(=O)NS1(=O)=O (single isomer, unassigned) [Example 160] | 0.397 | 5300
21 |  | COC(=O)CO[C@H]1/C=C/CC[C@@H](C2CC2)S(=O)(=O)NC(=O)c2ccc3c(c2)N(C[C@@H]2CC[C@H]21)C[C@@]1(CCCc2cc(Cl)ccc21)CO3 (single isomer, unassigned) [Example 161] | 1.31 | 86
22 |  | O=C1NS(=O)(=O)[C@@H](CCS(=O)(=O)Cc2ccccc2)CC/C=C/[C@H](O)[C@@H]2CC[C@H]2CN2C[C@@]3(CCCc4cc(Cl)ccc43)COc3ccc1cc32 (single isomer, unassigned) [Example 162] | 0.979 | 8400
23 |  | O=C1NS(=O)(=O)[C@@H](CCS(=O)(=O)Cc2ccccc2)CC/C=C/[C@H](O)[C@@H]2CC[C@H]2CN2C[C@@]3(CCCc4cc(Cl)ccc43)COc3ccc1cc32 (single isomer, unassigned) [Example 163] | 5.07 | 18900
24 |  | C[C@H]1/C=C/[C@H](O)[C@@H]2CC[C@H]2CN2C[C@@]3(CCCc4cc(Cl)ccc43)COc3ccc(cc32)C(=O)NS(=O)(=O)C1 (single isomer, unassigned) [Example 164] | 1.44 | 21900
25 | 25000 | CC1C=CC(O)C2CCC2CN2CC3(CCCc4cc(Cl)ccc43)COc3ccc(cc32)C(=O)NS(=O)(=O)C1 (single isomer, unassigned) [Example 165] | 3.8 | 
26 |  | C[C@@H]1[C@@H](C)/C=C/[C@H](O)[C@@H]2CC[C@H]2CN2C[C@@]3(CCCc4cc(Cl)ccc43)COc3ccc(cc32)C(=O)NS1(=O)=O (single isomer, unassigned) [Example 166] | 0.418 | 2070
27 |  | O=C1NS(=O)(=O)[C@H](CC2CCOCC2)CC/C=C/[C@H](O)[C@@H]2CC[C@H]2CN2C[C@@]3(CCCc4cc(Cl)ccc43)COc3ccc1cc32 (single isomer, unassigned) [Example 186] | 7.91 | 4660
28 |  | O=C1NS(=O)(=O)[C@H](CC2CCOCC2)CC/C=C/[C@H](O)[C@@H]2CC[C@H]2CN2C[C@@]3(CCCc4cc(Cl)ccc43)COc3ccc1cc32 (single isomer, unassigned) [Example 187] | 0.248 | 426
29 |  | CC[C@@H]1CC[C@H](O)/C=C/[C@@H]2CC[C@H]2CN2C[C@@]3(CCCc4cc(Cl)ccc43)COc3ccc(cc32)C(=O)NS1(=O)=O (single isomer, unassigned) [Example 197] | 1.12 | 2600
30 | 10200 | CCC1CCC(OC)C=CC2CCC2CN2CC3(CCCc4cc(Cl)ccc43)COc3ccc(cc32)C(=O)NS1(=O)=O (single isomer, unassigned) [Example 199] | 6.04 | 
31 | 23100 | CC1CC=CC(O)C2CCC2CN2CC3(CCCc4cc(Cl)ccc43)COc3ccc(cc32)C(=O)NS(=O)(=O)C1 (single isomer, unassigned) [Example 231] | 45.2 | 
32 |  | O=C1NS(=O)(=O)CCC/C(Br)=C\[C@@H](O)[C@@H]2CC[C@H]2CN2C[C@@]3(CCCc4cc(Cl)ccc43)COc3ccc1cc32 (single isomer, unassigned) [Example 236] | 6.42 | 13700
33 | 3730 | CC1CCCS(=O)(=O)NC(=O)c2ccc3c(c2)N(CC2CCC2C(O)C1)CC1(CCCc2cc(Cl)ccc21)CO3 (single isomer, unassigned) [Example 240] | 2.54 | 
34 |  | C[C@H]1CCCS(=O)(=O)NC(=O)c2ccc3c(c2)N(C[C@@H]2CC[C@H]2[C@@H](O)C1)C[C@@]1(CCCc2cc(Cl)ccc21)CO3 (single isomer, unassigned) [Example 241] | 4.85 | 7390
35 |  | C[C@H]1CCCS(=O)(=O)NC(=O)c2ccc3c(c2)N(C[C@@H]2CC[C@H]2[C@@H](O)C1)C[C@@]1(CCCc2cc(Cl)ccc21)CO3 (single isomer, unassigned) [Example 242] | 3.05 | 467
36 |  | C[C@H]1CCCS(=O)(=O)NC(=O)c2ccc3c(c2)N(C[C@@H]2CC[C@H]2[C@@H](O)C1)C[C@@]1(CCCc2cc(Cl)ccc21)CO3 (single isomer, unassigned) [Example 243] | 10.9 | 12100
